The structures appear in SMILES notation. “And” between values parts separate entries of the source, which are not always exact repeats. Identical values can stand only once.

The text below walks through data of patent US20240285508A1, “METHOD AND COMPOSITION FOR IMPROVING THE APPEARANCE OF SKIN” (The Procter & Gamble Company, priority 2023, published 2024).

Assay [1] deals with gelatin. Kind of assay: Advanced Glycation End Product Assay (AGE Assay), yellowness (b*) readout. In kind it is biochemical. To be noted: 24 hours; for % Δb* (yellowness) from a treatment vs positive glycation control / Convert to % Δb* inhibition (100%-% Δb*) / Convert to % Δb* inhibition (100-% Δb*): samples 1-3. Here is the method: (§1) The AGE Assay provides an in vitro method of determining how a test agent impacts glycation. In particular, a material of interest can be applied to gelatin, which acts as a surrogate for collagen (i.e., a heterogeneous mixture of high-average-molecular-mass, water-soluble proteins present in collagen), at neutral pH range. A glycating reagent is added to the gelatin matrix to initialize glycation reaction. The resulting AGEs detected by a spectrophotometer. When testing a material of interest, such as lactobionic acid and/or white water lily extract is added to the gelatin sample, it reacts with the proteins in the gelatin, much in the same way as it would with collagen. Glycation reaction will be initiated when glycating reagent is added into this material and gelatin matrix and will produce AGEs. A positive (pos) glycation control group is set up the same way as testing material groups to contain gelatin and glycating reagent but less any treatment material. The positive control group depicts how much glycation and yellowness can be formed without perturbation by any treatment material. The spectrophotometer detects the fluorescence intensity (“FLR”) or yellowness (b*) associated with the resulting AGEs, which can then be correlated to the amount of glycation that occurs in skin. Lower b* and FLR values correspond to less AGEs, and thus less glycation.
(§2) Three replicates of each test samples are prepared in a 96-well plate (e.g., a FALCON brand 96-well tissue culture plate or equivalent) at equal and defined volume. The plate(s) containing the test samples are placed in a standard cell culture incubator (e.g., THERMO SCIENTIFIC FORMA brand incubator available from Fisher Scientific, Waltham, MA or equivalent) and incubated for the duration of the test at 37° C. with 5% CO2 and 95% relative humidity. Fluorescence intensity (FLR) and yellowness are measured at the start of test (time=0) and monitored for 24 hours. To measure FLR or b*, the plate(s) containing the test samples are removed from the incubator and placed in a SPECTRAMAX Plus brand spectrophotometer (available from Molecular Devices, Sunnyvale, California) or equivalent. To detect fluorescence intensity (“FLR”), the spectrophotometer is set at 400/465 nm (ex/em). To detect yellowness (b*), the spectrophotometer is set to collect absorbance spectrum from 350 nm to 750 nm in 10 nm increments. The absorbance spectra from the yellowness measurement are then converted to L*a*b* values by a computer using suitable conversion software.
(§3) The change in fluorescence intensity (“ΔFLR”) is determined by comparing the FLR of a well at a sampling time point to the initial FLR at time=0. The change in yellowness (“Δb*”) at a particular time point is determined by comparing the initial b* value at time=0 to the b* value at the time point of interest. To determine the relative amount of glycation or yellowness formed due to a treatment effect compared to the positive glycation control group, which doesn't contain any active treatment, the ΔFLR and Δb* values from a treatment group is normalized against the corresponding values from the positive glycation control group (pos glycation) according to the following equation: […]
(§4) The test samples were prepared in triplicate for each testing group on a 96-well plate with 250 μl volume per well. Each well contains 2.25 mg gelatin (available from Sigma® as Catalog #G1393), the testing material(s) diluted to desired concentration, 40 mM DL-Glyceraldehyde (available from Sigma®, Catalog #G5001-5G), and a sufficient quantity of Dulbecco's phosphate buffered saline (“DPBS”) (available from Gibco's, Catalog #14190-144). The vehicle control contained 2.25 mg gelatin and a sufficient quantity of DPBS. The positive glycation control contained 2.25 mg gelatin, 40 mM DL-glyceraldehyde and DPBS.
(§5) The average glycation, ΔFLR, and yellowness, Δb*, were determined for each sample according to the AGE Assay described herein. The duration of the test was 24 hours. […]

In assay [2] the test system is gelatin. Kind of assay: Advanced Glycation End Product Assay (AGE Assay), fluorescence intensity (FLR, glycation) readout. To be noted: 24 hours. In kind it is biochemical. Here is the method:
as §1, §2, §3, §4, §5

The mark [3] stands for this setting: 0.101% lactobionic acid, Table 3.
[4] abbreviates: 0.101% lactobionic acid, Table 4, samples 1-3.
Setting [5] is: 0.2% lactobionic acid, Table 2, samples 1-3.

In the case of `O=C(O)[C@H](O)[C@@H](O)[C@H](O[C@@H]1O[C@H](CO)[C@H](O)[C@H](O)[C@H]1O)[C@H](O)CO` [LBA, lactobionic acid], the “Mean % Δb* inhibition for each group” value in the assay on gelatin [1] (0.1% LBA, Table 1) came to 27%; in the assay on gelatin [1] (0.1% LBA, Table 5), 32%; in the assay with gelatin [1] (setting [3]), 32%; in the assay with gelatin [1] (0.2% lactobionic acid, Table 1), 49%. Also, the “% Δb* (yellowness) from a treatment vs positive glycation control” value was 73% in the assay on gelatin [1] (0.1% LBA, Table 1); 68% and 69% and 67% in the assay with gelatin [1] (0.1% LBA, Table 5); 68% in the assay on gelatin [1] (setting [3]); 50% and 53% and 51% with gelatin [1] (0.2% lactobionic acid, Table 1). In addition, the “Convert to % Δb* inhibition (100%-% Δb*)” value in the assay with gelatin [1] (0.1% LBA, Table 1) is 27%; in the assay on gelatin [1] (0.2% lactobionic acid, Table 1), 50% and 47% and 49%. The “Convert to % Δb* inhibition (100-% Δb*)” value with gelatin [1] (0.1% LBA, Table 5) was 32% and 31% and 33%; in the assay on gelatin [1] (setting [3]), 32%. For the same compound, the “Mean % ΔFLR inhibition for each group” value amounted to 24% with gelatin [2] (0.1% LBA, Table 2); 30% in the assay on gelatin [2] (0.1% LBA, Table 6); 27% with gelatin [2] (0.101% lactobionic acid, Table 4); 44% with gelatin [2] (0.2% lactobionic acid, Table 2). The “% ΔFLR (glycation) normalized vs positive glycation control” value is 77% and 75% in the assay on gelatin [2] (0.1% LBA, Table 2, samples 1-3); 73% and 74% with gelatin [2] (setting [4]); 55% and 56% in the assay with gelatin [2] (setting [5]). Moreover, the “Convert to % ΔFLR inhibition (100-% ΔFLR)” value in the assay on gelatin [2] (0.1% LBA, Table 2, samples 1-3) was 23% and 25%; in the assay with gelatin [2] (0.1% LBA, Table 6, samples 1-3), 31% and 29% and 30%; in the assay on gelatin [2] (setting [4]), 27% and 26%; in the assay with gelatin [2] (setting [5]) it was 45% and 44%. Besides, in the assay with gelatin [2] (0.1% LBA, Table 6, samples 1-3), the “% ΔFLR (glycation) normalized vs positive glycation ctrl” value was 69% and 71% and 70%.
